Marks after values point to notes of the source that are not given here.
Tests used:
[1] = tested on: fibroblast growth factor receptors (FGFRs) 1, 2 and 3; conditions: reported in PTL 1; cited from earlier work
[2] = tested on: FGFR2-fusion gene positive intrahepatic cholangiocarcinoma; assay: Anti-tumor activity, tumor size, patient; format: in vivo, human; conditions: 30 mg once daily, one patient, FGFR2-fusion gene positive (78%)
Protocol: When Compound A was administered once daily at 30 mg to a patient with FGFR2-fusion gene positive (78%) intrahepatic cholangiocarcinoma, the tumor size reduced by about 9%.

FGFR pathway = assay: Pharmacodynamics: serum Phosphate, FGF23 and 1,25-(OH)2-Vitamin D, PD markers of FGFR pathway inhibition; format: in vivo, human
Protocol: Serum concentrations of Phosphate, FGF23 and 1,25-(OH)2-Vitamin D, PD markers of FGFR pathway inhibition were measured before the administration of Compound A and on Day 15 of Cycle 1.

[3] = Pharmacokinetics in plasma following single dose and repeated doses of Compound A 1.5 succinate; format: in vivo, human; conditions: for AUC(0-t) / Cavg / Cmax / Cmin / tmax / tmax, median (minimum − maximum) / AUC(0-inf) / CL/F / t1/2: Compound A
Protocol: In order to evaluate the PK when administered as a single dose, a single dose of Compound A for each treatment group (at the corresponding dosage for that group) was administered on Day 1. Compound A was administered when fasted, immediately after waking up with at least 10 hours fasting. Taking any meal was prohibited for 2 hours after administration and only drinking water was allowed.
Cycle 1 was started between 8 and 10 days after dosing in Cycle 0 and Compound A was administered continuously once daily. Compound A was administered at least 2 hours after breakfast, and any food intake was prohibited for 1 hour after administration. However, on Day 8 of Cycle 1, Compound A was administered immediately after waking up while the subject was fasted after at least 10 hours of overnight fasting in order to evaluate the PK. Taking any meals was prohibited for 2 hours after administration and only drinking water was allowed.
Plasma concentration profile of Compound A following a single dose and repeated doses of Compound A 1.5 succinate are shown in FIG. 1 and FIG. 2, respectively. The profile shown in FIG. 2 is that at steady state.
(§1) The pharmacokinetic parameters of Compound A following the single dose and repeated doses of Compound A 1.5 succinate are shown in the following table. The pharmacokinetic parameters of Compound A following repeated doses of Compound A 1.5 succinate shown below are those at steady state.
as §1, with “1.5 succinate updated after obtaining the above data are shown” for “1.5 succinate are shown”
The pharmacokinetic parameters of Compound B following the single dose and repeated doses of Compound A 1.5 succinate are shown in the following table. The pharmacokinetic parameters of Compound B following repeated doses of Compound A 1.5 succinate shown below are those at steady state.

[4] = repeated once-daily doses 30 mg, steady state (n = 2), Table 4
[5] = repeated once-daily doses 30 mg, steady state (n = 2), Table 5 (updated)
[6] = repeated once-daily doses 60 mg, steady state (n = 2), Table 4
[7] = repeated once-daily doses 60 mg, steady state (n = 2), Table 5 (updated)
[8] = repeated once-daily doses 100 mg, steady state (n = 3), Table 4
[9] = repeated once-daily doses 100 mg, steady state (n = 3), Table 5 (updated)
[10] = repeated once-daily doses 140 mg, steady state (n = 3), Table 4
[11] = repeated once-daily doses 140 mg, steady state (n = 3), Table 5 (updated)
[12] = repeated once-daily doses 180 mg, steady state (n = 3), Table 4
[13] = repeated once-daily doses 180 mg, steady state (n = 3), Table 5 (updated)
[14] = single dose 30 mg (n = 2), Table 4
[15] = single dose 30 mg (n = 2), Table 5 (updated)
[16] = single dose 60 mg (n = 3), Table 4
[17] = single dose 60 mg (n = 3), Table 5 (updated)
[18] = single dose 100 mg (n = 3), Table 4
[19] = single dose 100 mg (n = 3), Table 5 (updated)
[20] = single dose 140 mg (n = 3), Table 4
[21] = single dose 140 mg (n = 3), Table 5 (updated)
[22] = single dose 180 mg (n = 3), Table 4
[23] = single dose 180 mg (n = 3), Table 5 (updated)

SMILES: CNC(=O)n1ccc2cc(Oc3ccnc(NC(=O)c4ccc(C5CCN(CCO)CC5)cc4)c3)c(OCCOC)cc21 [Compound A, 5-((2-(4-(1-(2-hydroxyethyl)piperidin-4-yl)benzamide)pyridin-4-yl)oxy)-6-(2-methoxyethoxy)-N-methyl-1H-indole-1-carboxamide]
- inhibitory activity on FGFRs 1, 2 and 3 [1]: has an inhibitory activity
- tumor size reduction [2]: about 9%
- once-daily dosing at which increases of PD markers reached maximum (FGFR pathway; Day 15 of Cycle 1): 100 to 140 mg
- change in serum Phosphate, FGF23 and 1,25-(OH)2-Vitamin D (FGFR pathway; Day 15 of Cycle 1 vs before administration): dose-dependent increases in each marker
- metabolism in human subjects ([3]; Compound A administered to human subjects): metabolized in the body to produce Compound B
- AUC(0-t) [3, 4]: 158 ng·h/mL
- Cavg [3, 4]: 6.58 ng/mL
- Cmax [3, 4]: 13.3 ng/mL
- Cmin [3, 4]: 2.48 ng/mL
- tmax [3, 4]: 4 (3-5) h
- AUC(0-t) [3, 5]: 162 ng·h/mL
- Cavg [3, 5]: 6.75 ng/mL
- Cmax [3, 5]: 13.3 ng/mL
- Cmin [3, 5]: 4.50 ng/mL
- tmax, median (minimum − maximum) [3, 5]: 3.99 (3.00-4.97) h
- AUC(0-t) [3, 6]: 499^a^ h · ng/mL
- Cavg [3, 6]: 20.8^a ng/mL
- Cmax [3, 6]: 50.5^a ng/mL
- Cmin [3, 6]: 8.28^a ng/mL
- tmax [3, 6]: 2.5 (2-3)^a h
- AUC(0-t) [3, 7]: 507^a^ h · ng/mL
- Cavg [3, 7]: 21.1^a ng/mL
- Cmax [3, 7]: 50.5^a ng/mL
- Cmin [3, 7]: 11.0^a ng/mL
- tmax, median (minimum − maximum) [3, 7]: 2.54 (2.07-3.00) ^a h
- AUC(0-t) [3, 8]: 1330 ± 417 ng·h/mL
- Cavg [3, 8]: 55.2 ± 17.3 ng/mL
- Cmax [3, 8]: 116 ± 3.79 ng/mL
- Cmin [3, 8]: 18.7 ± 7.95 ng/mL
- tmax [3, 8]: 3 (2-5) h
- AUC(0-t) [3, 9]: 1340 ± 437 ng·h/mL
- Cavg [3, 9]: 55.91 ± 8.2 ng/mL
- Cmax [3, 9]: 116 ± 3.79 ng/mL
- Cmin [3, 9]: 22.3 ± 8.48 ng/mL
- tmax, median (minimum − maximum) [3, 9]: 2.97 (2.03-5.00) h
- AUC(0-t) [3, 10]: 4700 ± 3380 ng·h/mL
- Cavg [3, 10]: 196 ± 141 ng/mL
- Cmax [3, 10]: 372 ± 173 ng/mL
- Cmin [3, 10]: 101 ± 94.5 ng/mL
- tmax [3, 10]: 5 (3-5) h
- AUC(0-t) [3, 11]: 4700 ± 3380 ng·h/mL
- Cavg [3, 11]: 196 ± 141 ng/mL
- Cmax [3, 11]: 372 ± 173 ng/mL
- Cmin [3, 11]: 117 ± 116 ng/mL
- tmax, median (minimum − maximum) [3, 11]: 5.00 (2.98-5.08) h
- AUC(0-t) [3, 12]: 3850 ± 777 ng·h/mL
- Cavg [3, 12]: 161 ± 32.3 ng/mL
- Cmax [3, 12]: 337 ± 60.3 ng/mL
- Cmin [3, 12]: 61.4 ± 19.9 ng/mL
- tmax [3, 12]: 5 (3-5) h
- AUC(0-t) [3, 13]: 3860 ± 764 ng·h/mL
- Cavg [3, 13]: 161 ± 32.3 ng/mL
- Cmax [3, 13]: 337 ± 60.3 ng/mL
- Cmin [3, 13]: 64.8 ± 19.4 ng/mL
- tmax, median (minimum − maximum) [3, 13]: 5.00 (3.05-5.08) h
- AUC(0-inf) [3, 14]: 236 ng·h/mL
- AUC(0-t) [3, 14]: 220 ng·h/mL
- CL/F [3, 14]: 128 L/h
- Cmax [3, 14]: 28.1 ng/mL
- t1/2 [3, 14]: 22.8 h
- tmax [3, 14]: 3 (1-5) h
- AUC(0-inf) [3, 15]: 239 ng·h/mL
- AUC(0-t) [3, 15]: 222 ng·h/mL
- CL/F [3, 15]: 127 L/h
- Cmax [3, 15]: 28.1 ng/mL
- t1/2 [3, 15]: 22.7 h
- tmax, median (minimum − maximum) [3, 15]: 3.04 (0.93-5.15) h
- AUC(0-inf) [3, 16]: 551 ± 240 ng·h/mL
- AUC(0-t) [3, 16]: 529 ± 250 ng·h/mL
- CL/F [3, 16]: 122 ± 42.5 L/h
- Cmax [3, 16]: 38.7 ± 4.69 ng/mL
- t1/2 [3, 16]: 23.1 ± 7.65 h
- tmax [3, 16]: 3 (3-5) h
- AUC(0-inf) [3, 17]: 554 ± 247 ng·h/mL
- AUC(0-t) [3, 17]: 533 ± 257 ng·h/mL
- CL/F [3, 17]: 121 ± 43.1 L/h
- Cmax [3, 17]: 38.7 ± 4.69 ng/mL
- t1/2 [3, 17]: 23.1 ± 7.63 h
- tmax, median (minimum − maximum) [3, 17]: 3.00 (2.97-4.98)^ h
- AUC(0-inf) [3, 18]: 1120 ± 488 ng·h/mL
- AUC(0-t) [3, 18]: 1090 ± 483 ng·h/mL
- CL/F [3, 18]: 103 ± 48.9 L/h
- Cmax [3, 18]: 85.9 ± 30.8 ng/mL
- t1/2 [3, 18]: 15.1 ± 1.77 h
- tmax [3, 18]: 5 (3-5) h
- AUC(0-inf) [3, 19]: 1120 ± 479 ng·h/mL
- AUC(0-t) [3, 19]: 1080 ± 474 ng·h/mL
- CL/F [3, 19]: 103 ± 48.2 L/h
- Cmax [3, 19]: 85.9 ± 30.8 ng/mL
- t1/2 [3, 19]: 15.2 ± 1.84 h
- tmax, median (minimum − maximum) [3, 19]: 4.95 (2.97-5.10) h
- AUC(0-inf) [3, 20]: 4000 ± 3340 ng·h/mL
- AUC(0-t) [3, 20]: 3900 ± 3230 ng·h/mL
- CL/F [3, 20]: 60.4 ± 51.6 L/h
- Cmax [3, 20]: 227 ± 118.0 ng/mL
- t1/2 [3, 20]: 26.4 ± 12.2 h
- tmax [3, 20]: 5 (3-5) h
- AUC(0-inf) [3, 21]: 4050 ± 3340 ng·h/mL
- AUC(0-t) [3, 21]: 3960 ± 3230 ng·h/mL
- CL/F [3, 21]: 59.0 ± 50.2 L/h
- Cmax [3, 21]: 227 ± 118 ng/mL
- t1/2 [3, 21]: 26.4 ± 12.4 h
- tmax, median (minimum − maximum) [3, 21]: 4.88 (3.00-5.08) h
- AUC(0-inf) [3, 22]: 2570 ± 907 ng·h/mL
- AUC(0-t) [3, 22]: 2540 ± 924 ng·h/mL
- CL/F [3, 22]: 75.0 ± 22.0 L/h
- Cmax [3, 22]: 154 ± 38.4 ng/mL
- t1/2 [3, 22]: 23.6 ± 10.2 h
- tmax [3, 22]: 2 (2-5) h
- AUC(0-inf) [3, 23]: 2610 ± 921 ng·h/mL
- AUC(0-t) [3, 23]: 2570 ± 933 ng·h/mL
- CL/F [3, 23]: 74.2 ± 21.8 L/h
- Cmax [3, 23]: 154 ± 38.4 ng/mL
- t1/2 [3, 23]: 23.7 ± 10.4 h
- tmax, median (minimum − maximum) [3, 23]: 2.12 (1.95-5.00) h

Reference: US20200297711A1, “PHARMACEUTICAL COMPOSITION COMPRISING FGFR SELECTIVE TYROSINE KINASE INHIBITOR” (priority 2017, published 2020)
